# Source: USRE39591E1, “6-O-substituted ketolides having antibacterial activity” (Abbott Laboratories, priority 1996, dated 2007)
# Test system: up to 32 different microorganisms
# Experiment: in vitro antibacterial activity (MIC), agar dilution on Brain Heart Infusion (BHI) agar with Steers replicator
# Type: cell-based
# Conditions: unit assumed
# Summary of the method: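 Agar dilution MIC: twelve successive compound dilutions in BHI agar, spot-inoculated with 1:100 (1:10 for slow growers) organism dilutions by Steers replicator, incubated 35-37° C for 20-24 h. MIC is lowest concentration showing no growth, slight haze or sparse colonies versus drug-free control; erythromycin A as class reference.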
SMILES,MIC (organism code AA) [µg/mL],MIC (organism code CC) [µg/mL],MIC (organism code DD) [µg/mL],MIC (organism code EE) [µg/mL],MIC (organism code FF) [µg/mL],MIC (organism code GG) [µg/mL],MIC (organism code HH) [µg/mL],MIC (organism code II) [µg/mL],MIC (organism code JJ) [µg/mL],MIC (organism code KK) [µg/mL],MIC (organism code LL) [µg/mL],MIC (organism code MM) [µg/mL],MIC (organism code NN) [µg/mL],MIC (organism code OO) [µg/mL],MIC (organism code PP) [µg/mL],MIC (organism code QQ) [µg/mL],MIC (organism code RR) [µg/mL],MIC (organism code SS) [µg/mL],MIC (organism code TT) [µg/mL],MIC (organism code UU) [µg/mL],other results
"CCC1OC(=O)C(C)C(=O)C(C)C(OC2OC(C)CC(N(C)C)C2O)C(C)(OCC=Cc2cnc3ccc(O)cc3c2)CC(C)C(=O)C(C)C2NC(=O)OC12C (stereo not shown) [Example 208, R is —CH2CH═CH-(6-hydroxy-3-quinolyl)]",0.1,> 100,0.2,0.2,0.2,> 100,0.2,0.1,0.01,0.01,0.01,0.78,0.39,0.01,0.1,25,0.39,50,> 100,0.78,MIC (organism code BB): 0.39 µg/mL; MIC (organism code VV): 0.2 µg/mL; MIC (organism code WW): 2 µg/mL; MIC (organism code XX): 0.03 µg/mL; MIC (organism code YY): 0.03 µg/mL; MIC (organism code ZZ): 4 µg/mL; MIC (organism code ZZA): 1 µg/mL
"CCC1OC(=O)C(C)C(=O)C(C)C(OC2OC(C)CC(N(C)C)C2O)C(C)(OCC=Cc2cnc3ccc(OC)cc3c2)CC(C)C(=O)C(C)C2NC(=O)OC12C (stereo not shown) [Example 209, R is —CH2CH═CH-(6-methoxy-3-quinolyl)]",0.05,> 100,0.1,0.1,0.1,> 100,0.1,0.02,0.01,0.01,0.01,3.1,0.1,0.01,0.2,100,0.2,> 100,> 100,0.78,MIC (organism code VV): 0.02 µg/mL; MIC (organism code WW): 2 µg/mL; MIC (organism code XX): 0.03 µg/mL; MIC (organism code YY): 0.03 µg/mL; MIC (organism code ZZ): 4 µg/mL; MIC (organism code ZZA): 0.5 µg/mL
"CCC1OC(=O)C(C)C(=O)C(C)C(OC2OC(C)CC(N(C)C)C2O)C(C)(OCC=Cc2cnc3cccc([N+](=O)[O-])c3c2)CC(C)C(=O)C(C)C2NC(=O)OC12C (stereo not shown) [Example 210, R is —CH2CH═CH-(5-nitro-3-quinolyl)]",0.1,> 100,0.1,0.1,0.1,> 100,0.1,0.02,≤ 0.005,≤ 0.005,0.01,0.78,0.2,0.02,0.2,50,0.2,> 100,> 100,0.78,MIC (organism code VV): 0.02 µg/mL; MIC (organism code WW): 3 µg/mL; MIC (organism code XX): 0.015 µg/mL; MIC (organism code YY): ≤ 0.004 µg/mL; MIC (organism code ZZ): 4 µg/mL; MIC (organism code ZZA): 0.25 µg/mL
"CCC1OC(=O)C(C)C(=O)C(C)C(OC2OC(C)CC(N(C)C)C2O)C(C)(OCC=Cc2cnc3c([N+](=O)[O-])cccc3c2)CC(C)C(=O)C(C)C2NC(=O)OC12C (stereo not shown) [Example 211, R is —CH2CH═CH-(8-nitro-3-quinolyl)]",0.05,> 100,0.1,0.1,0.1,> 100,0.05,0.01,0.01,0.01,0.01,3.1,0.1,0.01,0.1,25,0.2,50,> 100,0.39,MIC (organism code BB): 0.05 µg/mL; MIC (organism code VV): 0.05 µg/mL; MIC (organism code WW): 2 µg/mL; MIC (organism code XX): ≤ 0.004 µg/mL; MIC (organism code YY): ≤ 0.004 µg/mL; MIC (organism code ZZ): 16 µg/mL; MIC (organism code ZZA): 0.25 µg/mL
"CCC1OC(=O)C(C)C(=O)C(C)C(OC2OC(C)CC(N(C)C)C2O)C(C)(OCC=Cc2ccc3ccccc3n2)CC(C)C(=O)C(C)C2NC(=O)OC12C (stereo not shown) [Example 212, R is —CH2CH═CH-(2-quinolyl)]",0.39,> 100,0.39,0.39,0.39,> 100,0.39,0.1,≤ 0.005,0.1,0.05,25,0.39,0.05,0.39,> 100,0.39,> 100,> 100,0.78,MIC (organism code BB): 0.39 µg/mL; MIC (organism code VV): 0.2 µg/mL; MIC (organism code WW): 8 µg/mL; MIC (organism code XX): 0.125 µg/mL; MIC (organism code YY): 0.25 µg/mL; MIC (organism code ZZ): 128 µg/mL; MIC (organism code ZZA): 1 µg/mL
"CCC1OC(=O)C(C)C(=O)C(C)C(OC2OC(C)CC(N(C)C)C2O)C(C)(OCC=Cc2ccnc3ccccc23)CC(C)C(=O)C(C)C2NC(=O)OC12C (stereo not shown) [Example 213, R is —CH2CH═CH-(4-quinolyl)]",0.2,> 100,0.2,0.2,0.2,> 100,0.2,0.1,0.05,0.05,0.02,100,0.39,0.05,0.2,100,0.39,> 100,> 100,0.39,MIC (organism code BB): 0.2 µg/mL; MIC (organism code VV): 0.39 µg/mL; MIC (organism code WW): 4 µg/mL; MIC (organism code XX): 0.03 µg/mL; MIC (organism code YY): 0.03 µg/mL; MIC (organism code ZZ): > 128 µg/mL; MIC (organism code ZZA): 1 µg/mL
